We go through 10 molecules from ChEMBL document CHEMBL2034887, “Substituted phenoxypropyl-(R)-2-methylpyrrolidine aminomethyl ketones as histamine-3 receptor inverse agonists” (Bioorg Med Chem Lett, 2012).

In data set [1] the target is T1, Histamine H3 receptor (Homo sapiens, UniProt Q9Y5N1). Briefly: Displacement of [3H]NAMH from human histamine H3 receptor expressed in CHO cells. The format is cell-based.
Data set [2] deals with Histamine H3 receptor (Rattus norvegicus, UniProt Q9QYN8). Briefly: Displacement of [3H]NAMH from rat histamine H3 receptor expressed in CHO cells. The format is cell-based. Background: In a radioligand displacement assay an active substance lowers the binding of a labelled ligand.
Data set [3] in a line: Ratio of drug level in brain to plasma in rat at 5 mg/kg, po measured after 6 hrs. Format: ADME, organism-based. Set-up: dose 5 mg/kg, route oral. The conditions noted are these: read-out: BPR.
The test system of data set [4] is Caco-2. Briefly: Permeability across human Caco2 cells. The format is ADME, cell-based.
In data set [5] the target is Histamine H4 receptor (Homo sapiens) (UniProt Q9H3N8). In words: Inhibition of human histamine H4 receptor at 10 uM.
Data set [6] has as its target hERG (KCNH2) (Homo sapiens, UniProt Q12809). Briefly: Inhibition of human ERG at 10 uM.
Data set [7] concerns the target CYP3A4 (Homo sapiens, UniProt P08684). Briefly: (§1) Inhibition of CYP3A4. Format: ADME.
A short description of data set [8]: Half life in mouse liver microsomes. The format is ADME, Microsome. For orientation: Liver microsomes are a subcellular fraction often used to study metabolism.
Data set [9] can be described thus: Volume of distribution in rat at […], iv. Format: ADME, organism-based. The conditions noted are these: in vivo.
Data set [10] addresses T2, CYP1A2 (Homo sapiens, UniProt P05177).
T2 sequence (P05177 whole entry): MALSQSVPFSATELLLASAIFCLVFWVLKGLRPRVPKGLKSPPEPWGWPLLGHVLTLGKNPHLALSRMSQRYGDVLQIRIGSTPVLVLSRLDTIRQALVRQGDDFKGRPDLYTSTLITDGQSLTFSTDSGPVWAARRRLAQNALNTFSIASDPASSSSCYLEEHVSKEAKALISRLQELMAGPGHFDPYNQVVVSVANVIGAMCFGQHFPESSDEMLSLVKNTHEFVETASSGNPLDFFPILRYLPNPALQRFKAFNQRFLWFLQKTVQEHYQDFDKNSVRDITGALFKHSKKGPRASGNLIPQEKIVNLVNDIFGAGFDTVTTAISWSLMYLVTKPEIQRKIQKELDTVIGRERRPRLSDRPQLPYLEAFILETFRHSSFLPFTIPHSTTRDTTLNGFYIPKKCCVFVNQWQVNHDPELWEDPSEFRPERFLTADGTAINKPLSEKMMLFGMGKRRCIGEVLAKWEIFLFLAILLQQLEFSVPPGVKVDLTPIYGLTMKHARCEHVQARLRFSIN
Briefly: (§2) Inhibition of CYP1A2. The format is ADME.

Data set [11] in a line: Half life in monkey liver microsomes. Format: ADME, Macaca mulatta, Microsome. The conditions noted are these: rhesus monkey.
A short description of data set [12]: Clearance in rat at […], iv. The format is ADME, organism-based. The conditions noted are these: in vivo.
The nature of data set [13]: Plasma protein binding in human. The format is ADME, cell-free. Conditions: read-out: PPB.
Data set [14] is described as follows: Plasma protein binding in rat. Conditions: read-out: PPB. Format: ADME, cell-free.
Data set [15] in a line: Half life in human liver microsomes. Format: ADME, Microsome.
The nature of data set [16]: Half life in rat liver microsomes. Format: ADME, Microsome.
Data set [17] has as its target Histamine H1 receptor (Homo sapiens) (UniProt P35367). Briefly: Inhibition of human histamine H1 receptor at 10 uM.
In data set [18] the target is CYP2C9 (Homo sapiens, UniProt P11712). In words: (§3) Inhibition of CYP2C9. Format: ADME.
Data set [19] concerns the target CYP2C19 (Homo sapiens, UniProt P33261). In words: (§4) Inhibition of CYP2C19. The format is ADME.
Data set [20] can be described thus: Half life in dog liver microsomes. The format is ADME, Canis lupus familiaris, Microsome.
For data set [21], the target named is CYP2D6 (Homo sapiens, UniProt P10635). Briefly: (§5) Inhibition of CYP2D6. The format is ADME.
A short description of data set [22]: AUC in rat at 5 mg/kg, po. Format: ADME, organism-based. Set-up: dose 5 mg/kg, route oral. Conditions: plasma.
Data set [23] can be described thus: Half life in rat at […], iv. Format: ADME, organism-based. Conditions: in vivo.
Data set [24] in a line: Cmax in rat at 5 mg/kg, po. The conditions noted are these: in vivo. The format is ADME, organism-based. Set-up: dose 5 mg/kg, route oral.
Data set [25] addresses Histamine H2 receptor (Homo sapiens) (UniProt P25021). In words: Inhibition of human histamine H2 receptor at 10 uM.
Data set [26] has as its system Rattus norvegicus. In words: Wake promoting activity in EEG/EMG Sprague-Dawley rat model measured up to 4 hrs post dosing. The format is functional, organism-based.
In data set [27] the test system is Rattus norvegicus. Briefly: Wake promoting activity in EEG/EMG Sprague-Dawley rat model assessed as wake time at 10 mg/kg, ip measured up to 4 hrs (reference value: 85 +/- 9 mins). The format is functional. The conditions noted are these: route intraperitoneal.
Data set [28] deals with Cytochrome P450 3A4 (Homo sapiens, UniProt P08684). The description is as §1. The format is ADME.
The test system of data set [29] is Rattus norvegicus. In words: Wake promoting activity in EEG/EMG Sprague-Dawley rat model assessed as wake time at 30 mg/kg, ip measured up to 4 hrs (reference value: 85 +/- 9 mins). The format is functional. Conditions: route intraperitoneal.
In data set [30] the target is T3, Cytochrome P450 1A2 (Homo sapiens, UniProt P05177).
T3 sequence (P05177 whole entry): T2 sequence (P05177 whole entry)
Described as §2. The format is ADME.

Data set [31] concerns Rattus norvegicus. Briefly: Wake promoting activity in EEG/EMG Sprague-Dawley rat model assessed as maximal cumulative wake surplus time at 10 to 30 mg/kg, ip measured after 9 hrs. Format: functional. Conditions: dose mg/kg 10-30; route intraperitoneal.
Data set [32] concerns Rattus norvegicus. In words: Wake promoting activity in EEG/EMG Sprague-Dawley rat model assessed as cumulative wake time at 30 mg/kg, ip measured after 5 hrs relative to control. The format is functional. Conditions: route intraperitoneal.
The target in data set [33] is Cytochrome P450 2C9 (Homo sapiens, UniProt P11712). The description is as §3. The format is ADME.
In data set [34] the target is Cytochrome P450 2C19 (Homo sapiens, UniProt P33261). The data set is described as §4. The format is ADME.
Data set [35] deals with Rattus norvegicus. In words: Wake promoting activity in EEG/EMG Sprague-Dawley rat model at 30 mg/kg, ip measured after 3.5 hrs relative to control. On the set-up: dose 30 mg/kg. Format: functional, organism-based.
For data set [36], the target named is Cytochrome P450 2D6 (Homo sapiens, UniProt P10635). The data set is described as §5. Format: ADME.
Data set [37] in a line: Oral bioavailability in rat at 5 mg/kg. The format is ADME, organism-based. Conditions: in vivo.
Data set [38] relates to Rattus norvegicus. In words: Wake promoting activity in EEG/EMG Sprague-Dawley rat model assessed as sleep rebound at 10 to 30 mg/kg, ip. The format is functional, organism-based.
Data set [39] deals with T1, Histamine H3 receptor. Briefly: Inverse agonist activity at human histamine H3 receptor by [35S]-GTPgammaS binding assay. The format is functional. On the technique in general: Binding of GTPγS marks nucleotide exchange on a G protein.
In data set [40] the test system is Rattus norvegicus. In words: Inhibition of RAMH-induced dipsogenia in rat at 1 mg/kg, ip. Format: functional, organism-based. On the set-up: dose 1 mg/kg.
Data set [41] deals with T1, Histamine H3 receptor. In words: Antagonist activity at human histamine H3 receptor assessed as inhibition of [35S]-GTPgammaS binding. Format: functional.

Activity calls are given as the source filed them.

Sequence of Histamine H3 receptor (Rattus norvegicus, UniProt Q9QYN8) (Q9QYN8 whole entry): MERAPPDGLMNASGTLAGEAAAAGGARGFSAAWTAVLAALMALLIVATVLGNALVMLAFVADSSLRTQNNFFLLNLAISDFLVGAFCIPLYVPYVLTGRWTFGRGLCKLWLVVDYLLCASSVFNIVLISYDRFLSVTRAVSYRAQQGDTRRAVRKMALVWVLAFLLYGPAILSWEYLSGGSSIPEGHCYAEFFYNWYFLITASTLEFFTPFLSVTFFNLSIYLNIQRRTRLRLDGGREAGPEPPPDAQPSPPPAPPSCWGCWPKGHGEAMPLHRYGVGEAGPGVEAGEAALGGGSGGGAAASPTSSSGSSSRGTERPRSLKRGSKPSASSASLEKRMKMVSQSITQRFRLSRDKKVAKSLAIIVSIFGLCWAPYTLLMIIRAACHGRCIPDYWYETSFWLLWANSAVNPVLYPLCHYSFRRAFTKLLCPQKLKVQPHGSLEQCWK
T1 sequence (Q9Y5N1 whole entry): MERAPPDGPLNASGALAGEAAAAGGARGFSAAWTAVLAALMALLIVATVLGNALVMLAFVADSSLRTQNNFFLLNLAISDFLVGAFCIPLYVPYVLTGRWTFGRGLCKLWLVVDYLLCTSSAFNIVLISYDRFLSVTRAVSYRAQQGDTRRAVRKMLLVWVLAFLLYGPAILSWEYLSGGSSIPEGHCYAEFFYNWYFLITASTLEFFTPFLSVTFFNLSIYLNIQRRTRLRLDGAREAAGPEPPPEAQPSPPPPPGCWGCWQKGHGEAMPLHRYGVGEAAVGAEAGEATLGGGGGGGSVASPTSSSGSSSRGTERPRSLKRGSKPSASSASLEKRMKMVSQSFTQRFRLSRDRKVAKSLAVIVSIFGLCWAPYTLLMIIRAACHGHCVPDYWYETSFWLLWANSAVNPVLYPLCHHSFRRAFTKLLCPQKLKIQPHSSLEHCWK
Sequence of hERG (KCNH2) (Q12809 whole entry): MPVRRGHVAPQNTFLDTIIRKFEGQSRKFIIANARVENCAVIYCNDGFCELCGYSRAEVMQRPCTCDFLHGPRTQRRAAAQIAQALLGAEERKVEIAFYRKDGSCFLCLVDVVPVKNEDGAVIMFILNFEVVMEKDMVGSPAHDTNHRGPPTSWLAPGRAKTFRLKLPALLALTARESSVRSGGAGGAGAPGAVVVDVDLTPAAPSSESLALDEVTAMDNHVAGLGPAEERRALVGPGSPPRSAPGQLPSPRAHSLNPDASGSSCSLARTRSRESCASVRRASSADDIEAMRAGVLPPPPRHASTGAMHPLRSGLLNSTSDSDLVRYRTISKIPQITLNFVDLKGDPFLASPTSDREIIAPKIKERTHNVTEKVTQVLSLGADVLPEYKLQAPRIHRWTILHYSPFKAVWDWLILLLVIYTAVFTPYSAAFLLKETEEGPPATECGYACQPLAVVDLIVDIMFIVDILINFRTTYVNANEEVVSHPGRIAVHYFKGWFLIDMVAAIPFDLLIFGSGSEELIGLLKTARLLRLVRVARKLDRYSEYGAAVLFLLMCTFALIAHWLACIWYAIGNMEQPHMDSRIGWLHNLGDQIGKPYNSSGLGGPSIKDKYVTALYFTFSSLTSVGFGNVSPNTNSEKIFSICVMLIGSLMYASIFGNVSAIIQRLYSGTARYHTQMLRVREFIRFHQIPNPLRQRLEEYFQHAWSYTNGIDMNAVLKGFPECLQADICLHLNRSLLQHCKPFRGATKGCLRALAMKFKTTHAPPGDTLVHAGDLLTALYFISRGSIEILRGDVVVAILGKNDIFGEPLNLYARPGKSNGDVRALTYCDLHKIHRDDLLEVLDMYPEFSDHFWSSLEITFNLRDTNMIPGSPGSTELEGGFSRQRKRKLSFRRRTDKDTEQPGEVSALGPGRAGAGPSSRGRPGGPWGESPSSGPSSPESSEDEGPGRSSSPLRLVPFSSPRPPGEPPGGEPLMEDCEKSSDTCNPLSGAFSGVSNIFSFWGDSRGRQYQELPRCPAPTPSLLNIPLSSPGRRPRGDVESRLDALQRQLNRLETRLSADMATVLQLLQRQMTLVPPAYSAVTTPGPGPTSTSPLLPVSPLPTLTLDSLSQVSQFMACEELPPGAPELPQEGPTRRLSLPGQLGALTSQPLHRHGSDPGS
Sequence of CYP3A4 (P08684 whole entry): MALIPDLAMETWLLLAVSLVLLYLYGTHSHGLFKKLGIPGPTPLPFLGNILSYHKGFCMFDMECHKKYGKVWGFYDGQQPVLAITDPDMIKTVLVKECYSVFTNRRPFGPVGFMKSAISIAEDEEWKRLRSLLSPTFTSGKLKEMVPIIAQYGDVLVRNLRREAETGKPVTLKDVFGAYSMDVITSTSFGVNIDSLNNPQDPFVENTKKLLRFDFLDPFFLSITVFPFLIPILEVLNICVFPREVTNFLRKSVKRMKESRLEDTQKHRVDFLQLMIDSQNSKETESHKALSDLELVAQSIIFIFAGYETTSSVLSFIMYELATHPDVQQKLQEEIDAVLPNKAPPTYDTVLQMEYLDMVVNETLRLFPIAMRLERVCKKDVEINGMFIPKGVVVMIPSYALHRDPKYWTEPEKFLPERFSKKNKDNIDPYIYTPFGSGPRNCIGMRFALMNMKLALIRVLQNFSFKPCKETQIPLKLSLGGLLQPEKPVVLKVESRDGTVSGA
Sequence of Cytochrome P450 3A4 (P08684 whole entry): as above
Sequence of Histamine H2 receptor (Homo sapiens) (P25021 whole entry): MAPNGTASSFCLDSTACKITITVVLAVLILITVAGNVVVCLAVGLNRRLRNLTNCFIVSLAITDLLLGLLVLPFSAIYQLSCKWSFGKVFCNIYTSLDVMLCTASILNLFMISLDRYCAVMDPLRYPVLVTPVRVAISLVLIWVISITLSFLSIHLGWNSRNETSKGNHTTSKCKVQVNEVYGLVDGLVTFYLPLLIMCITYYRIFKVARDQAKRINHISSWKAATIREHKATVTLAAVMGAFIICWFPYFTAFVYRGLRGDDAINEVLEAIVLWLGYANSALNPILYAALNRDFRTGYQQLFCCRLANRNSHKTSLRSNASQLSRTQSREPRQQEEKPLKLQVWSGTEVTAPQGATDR
Sequence of CYP2C19 (P33261 whole entry): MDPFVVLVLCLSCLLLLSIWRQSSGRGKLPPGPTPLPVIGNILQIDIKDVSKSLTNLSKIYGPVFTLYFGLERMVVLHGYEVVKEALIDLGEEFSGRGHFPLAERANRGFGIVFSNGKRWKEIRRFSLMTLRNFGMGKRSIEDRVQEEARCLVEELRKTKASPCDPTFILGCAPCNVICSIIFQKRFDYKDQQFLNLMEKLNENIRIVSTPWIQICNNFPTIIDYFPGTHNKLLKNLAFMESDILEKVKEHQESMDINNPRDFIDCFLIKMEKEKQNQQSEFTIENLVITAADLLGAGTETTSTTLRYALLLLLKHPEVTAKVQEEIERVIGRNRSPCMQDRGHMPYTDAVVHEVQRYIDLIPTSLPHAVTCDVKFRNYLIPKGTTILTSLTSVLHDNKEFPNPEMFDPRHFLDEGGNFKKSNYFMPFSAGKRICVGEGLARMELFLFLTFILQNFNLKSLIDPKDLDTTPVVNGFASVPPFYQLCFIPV
Sequence of Cytochrome P450 2C19 (P33261 whole entry): as above
Sequence of CYP2C9 (P11712 whole entry): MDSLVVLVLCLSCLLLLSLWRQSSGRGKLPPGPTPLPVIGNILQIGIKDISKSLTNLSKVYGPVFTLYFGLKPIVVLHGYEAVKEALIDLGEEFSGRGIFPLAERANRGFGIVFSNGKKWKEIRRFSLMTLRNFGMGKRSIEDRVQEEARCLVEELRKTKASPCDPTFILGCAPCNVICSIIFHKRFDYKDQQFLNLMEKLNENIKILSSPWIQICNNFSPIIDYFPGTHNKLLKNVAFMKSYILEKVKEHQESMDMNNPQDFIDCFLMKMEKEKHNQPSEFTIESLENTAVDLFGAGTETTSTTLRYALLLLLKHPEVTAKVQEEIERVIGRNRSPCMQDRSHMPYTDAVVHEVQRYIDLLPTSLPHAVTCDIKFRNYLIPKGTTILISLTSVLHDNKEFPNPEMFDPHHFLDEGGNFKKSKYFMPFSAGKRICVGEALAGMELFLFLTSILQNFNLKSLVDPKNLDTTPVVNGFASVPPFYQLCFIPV
Sequence of Cytochrome P450 2C9 (P11712 whole entry): as above

By Ki is commonly meant a dissociation constant, usually derived from enzyme kinetics or from competition with a known ligand. Consider `C[C@@H]1CCCN1CCCOc1ccc(C(=O)CN2CCN(C(=O)C(F)(F)F)CC2)cc1`, for which the inhibition constant (Ki) in data set [1] was found to be 2.1 nM; in data set [2] it was 17 nM.

`C[C@@H]1CCCN1CCCOc1ccc(C(=O)CN2CCN(C(=O)Oc3ccc(F)cc3)CC2)cc1`: the inhibition constant Ki in data set [1] turned out to be 3 nM; in [2], 3.7 nM.

On to `C[C@@H]1CCCN1CCCOc1ccc(C(=O)CN2CCN(C(=O)c3ccco3)CC2)cc1`, for which the Ki in data set [1] turned out to be 2 nM; in [2] it was 16 nM. The Kp at 6 h in data set [3] is < 0.6.

As a reminder, the inhibition is the drop in the measured response relative to a control, in per cent. The term IC50 denotes the midpoint of a concentration-inhibition curve. A word on the half-life: it is the time needed for the level to fall by half in the phase considered. The term Vd denotes a proportionality between amount in the body and measured concentration, not a real space. Broadly, the clearance is a measure of how efficiently the substance is removed, as volume per time. The term AUC denotes concentration integrated over time. As usually defined, the Cmax is the highest concentration seen after dosing. In the case of `C[C@@H]1CCCN1CCCOc1ccc(C(=O)CN2CCOCC2)cc1`, in data set [4], the permeability result is “permeable”. The inhibition in [5], in [17] and in data set [25] was < 50% throughout. For the same molecule, in data set [3], the Kp at 6 h turned out to be 50. In addition, the inhibition at 10 µM in [6] came to 21%. The 50% inhibitory concentration (IC50) in data set [7], in data set [10], in data set [18], in data set [19] and in data set [21] was > 30000 nM in each case. The half-life is > 40 min in [8]; > 40 min in [11]; > 40 min in data set [15]; > 40 min in data set [16]; > 40 min in data set [20]; 138 min in [23]. In data set [9], the Vd came to 27 L/kg. Further, in [12], the clearance worked out at 126 mL/min/kg. Further, the fraction unbound in data set [13] and in data set [14] was > 0.8 in each case. The molecule also registered an area under the curve (AUC) in data set [22] of 81 ng·h/mL. This molecule showed a Cmax in data set [24] of 17 ng/mL.

As for `C[C@@H]1CCCN1CCCOc1ccc(C(=O)CN2CCN(S(C)(=O)=O)CC2)cc1`, the values for the inhibition constant (Ki) in [1] and in data set [2] were 3.4 nM and 26 nM, respectively. The Kp at 6 h in data set [3] is < 0.6.

Broadly, the bioavailability is the share of a dose that reaches the circulation, judged against a reference dose that is usually intravenous. Usually EC50 stands for the concentration needed to bring the measured effect to its halfway point. Broadly, the Kb is the affinity of an antagonist, worked out from how it opposes an agonist. `C[C@@H]1CCCN1CCCOc1ccc(C(=O)CN2CCC(F)(F)CC2)cc1`: the Activity entry in data set [26] is “Dose-dependent effect”. For the same molecule, the figures for the Ki in data set [1] and in [2] were 11 nM and 43 nM, respectively. The Kp at 6 h in data set [3] came out at 25. Moreover, the Time in data set [27] is reported as 150 min; in data set [29], 195 min; in data set [31], 46 min; in data set [32], 113 min. In addition, the IC50 in [28], in data set [30], in [33], in [34] and in data set [36] was > 30000 nM throughout. In data set [9], this molecule gave a volume of distribution (Vd) of 2.2 L/kg. This molecule also came in with a clearance in data set [12] of 53 mL/min/kg. Also, in data set [35], the outcome was Active. For the same molecule, the exposure (AUC) in [22] worked out at 266 ng·h/mL. This molecule had a half-life in data set [23] of 30 min. Besides, in data set [37], the bioavailability came out at 15%. Moreover, the highest concentration (Cmax) in data set [24] is 66 ng/mL. Also, in [38], the outcome was inactive. In addition, the concentration for a half-maximal effect (EC50) in data set [39] amounted to 1.8 nM. Further, in [40], the inhibition result is “Active”. Moreover, in data set [41], the antagonist dissociation constant (Kb) came out at 3.7 nM.

Regarding `C[C@@H]1CCCN1CCCOc1ccc(C(=O)CN2CCC(C(F)(F)F)CC2)cc1`, the inhibition constant (Ki) in data set [1] is 2.5 nM; in data set [2], 9.1 nM.

On to `C[C@@H]1CCCN1CCCOc1ccc(C(=O)CN2CCN(C(=O)c3cccs3)CC2)cc1`, for which the Ki in data set [1] was 4.2 nM; in data set [2], 9 nM.

On to `CC(=O)N1CCN(CC(=O)c2ccc(OCCCN3CCC[C@H]3C)cc2)CC1`, for which the inhibition constant Ki in data set [1] turned out to be 2.8 nM; in data set [2], 30 nM. In data set [3], the Kp at 6 h was < 0.6.

For the molecule `CC(C)COC(=O)N1CCN(CC(=O)c2ccc(OCCCN3CCC[C@H]3C)cc2)CC1`, the inhibition constant (Ki) in data set [1] stood at 4.6 nM; in data set [2], 12 nM.
